One series has as its system Leishmania major. The experiment in a line: Antileishmanial activity against Leishmania major promastigotes after 72 hrs by Neubauer chamber based cell counting method. Type of series: functional, organism-based.
Series [1] in a line: Cytotoxicity against […] 3T3 cells after 48 hrs by MTT assay. The format is cell-based. In general terms: Formazan colour is commonly taken as a measure of viable cells.
A short description of series [2]: Cytotoxicity against […] 3T3 cells assessed as inhibition of cell viability at 50 uM after 48 hrs by MTT assay. The format is cell-based. The conditions noted are these: read-out: INH.

One may read the IC50 as the point on the concentration scale where inhibition reaches its midpoint.

Structures are written as SMILES.

With `CCCCN1CN(CC(=O)OCC)CSC1=S`, the IC50 with Leishmania major was 36.5 µM.

In turn, `CCCCN1CN(CC(=O)O)CSC1=S` registered an IC50 with Leishmania major of 24.6 µM.

In the series on Leishmania major, `CC(c1ccccc1)N1CN(CC(=O)O)CSC1=S` (stereo not given) had an IC50 of 30.7 µM.

In the series with Leishmania major, `CC(c1ccccc1)N1CN(CCO)CSC1=S` (stereo not given) came in with an IC50 of 32.2 µM.

For the compound `CC(C)N1CN(CC(=O)O)CSC1=S`, the midpoint of inhibition with Leishmania major, the IC50, lay at 137 µM.

In the series on Leishmania major, `CCCCN1CSC(=S)N(CC(=O)O)C1` had an IC50 of 36.6 µM.

On to `CCCN1CN(CC(=O)O)CSC1=S`, for which the IC50 in series [1] (NIH3T3, 48 h, read-out: IC50) was determined as 38.1 µM; in the series on Leishmania major, 39.3 µM. In addition, the cytotoxicity at 48 h, 50 µM in series [2] stood at 56.6%.

The compound `CCCN1CSC(=S)N(C(C)c2ccccc2)C1` (stereo not given) showed an IC50 in the series with Leishmania major of 24.2 µM.

For the compound `CCN1CN(CC(=O)O)CSC1=S`, the IC50 with Leishmania major came out at 33.1 µM.

In the series with Leishmania major, `CCN1CSC(=S)N(C(C)c2ccccc2)C1` (stereo not given) came in with an IC50 of 46.2 µM.

Take `CCCCN1CSC(=S)N(C(C)c2ccccc2)C1` (stereo not given): in the series with Leishmania major, the IC50 was 21.4 µM.

On to `C[C@@H]1C[C@@H]([C@H](O)CC2CC(=O)NC(=O)C2)C(=O)[C@@H](C)C1` [CYCLOHEXIMIDE], for which the IC50 in series [1] (NIH3T3, 48 h, read-out: IC50) amounted to 0.61 µM. Further, in series [2], the cytotoxicity at 48 h, 50 µM turned out to be 66%.

As to `CCCN1CSC(=S)N(CC(=O)O)C1`, the half-maximal inhibitory concentration (IC50) with Leishmania major turned out to be 69.6 µM.

In the series on Leishmania major, `C[C@@H]1[C@H](O)[C@@H](C)/C=C/C=C/C=C/C=C/C=C/C=C/C=C/[C@H](O[C@@H]2O[C@H](C)[C@@H](O)[C@H](N)[C@@H]2O)C[C@@H]2O[C@](O)(C[C@@H](O)C[C@@H](O)[C@H](O)CC[C@@H](O)C[C@@H](O)CC(=O)O[C@H]1C)C[C@H](O)[C@H]2C(=O)O` [AMPHOTERICIN B] showed an IC50 of 0.31 µM.

Compound `O=C(O)CN1CN(CCO)CSC1=S` came in with an IC50 in the series with Leishmania major of 39.4 µM.

In turn, `CCN1CSC(=S)N(CC)C1` returned an IC50 in the series with Leishmania major of 38.4 µM.

`CCCN1CN(CC(=O)OCc2ccccc2)CSC1=S`: in the series on Leishmania major, the IC50 came to 93.1 µM.

With `CCCN1CN(CC(=O)OCC)CSC1=S`, the IC50 with Leishmania major is 107 µM.

Compound `CCN1CSC(=S)N(CC(=O)O)C1` showed an IC50 in the series on Leishmania major of 45.8 µM.

Turning to `COc1ccc(CN2CN(CC(=O)O)CSC2=S)cc1OC`, the IC50 was determined as 22.7 µM in series [1] (NIH3T3, 48 h, read-out: IC50) and 15.5 µM with Leishmania major. Also, in series [2], the cytotoxicity at 48 h, 50 µM amounted to 86.8%.

In the case of `CCCN1CN(CC(=O)OC)CSC1=S`, the IC50 result in series [1] is “Not Active”; in the series on Leishmania major, 203 µM. The cytotoxicity at 48 h, 50 µM in series [2] was 36.9%.

Compound `CC(C)N1CSC(=S)N(C(C)c2ccccc2)C1` (stereo not given) yielded an IC50 in the series on Leishmania major of 21.4 µM.

Take `N=C(N)c1ccc(OCCCCCOc2ccc(C(=N)N)cc2)cc1` [PENTAMIDINE]: the IC50 with Leishmania major amounted to 15 µM.

For the origin of these results see ChEMBL document CHEMBL4265892, “New series of 3,5-disubstituted tetrahydro-2H-1,3,5-thiadiazine thione (THTT) derivatives: Synthesis and potent antileishmanial activity” (Bioorg Med Chem Lett, 2018).
